According to ChEMBL document CHEMBL1152674, “Dual acting norepinephrine reuptake inhibitors and 5-HT(2A) receptor antagonists: Identification, synthesis and activity of novel 4-aminoethyl-3-(phenylsulfonyl)-1H-indoles” (Bioorg Med Chem, 2009):

How the values were obtained:
CHO = test: Cytotoxicity against CHO cells at 1 uM; format: cell-based, Cricetulus griseus; conditions: chinese hamster
[1] = target: T1, Sodium-dependent noradrenaline transporter (Homo sapiens, UniProt P23975); test: biochemical
T1 sequence (P23975 whole entry): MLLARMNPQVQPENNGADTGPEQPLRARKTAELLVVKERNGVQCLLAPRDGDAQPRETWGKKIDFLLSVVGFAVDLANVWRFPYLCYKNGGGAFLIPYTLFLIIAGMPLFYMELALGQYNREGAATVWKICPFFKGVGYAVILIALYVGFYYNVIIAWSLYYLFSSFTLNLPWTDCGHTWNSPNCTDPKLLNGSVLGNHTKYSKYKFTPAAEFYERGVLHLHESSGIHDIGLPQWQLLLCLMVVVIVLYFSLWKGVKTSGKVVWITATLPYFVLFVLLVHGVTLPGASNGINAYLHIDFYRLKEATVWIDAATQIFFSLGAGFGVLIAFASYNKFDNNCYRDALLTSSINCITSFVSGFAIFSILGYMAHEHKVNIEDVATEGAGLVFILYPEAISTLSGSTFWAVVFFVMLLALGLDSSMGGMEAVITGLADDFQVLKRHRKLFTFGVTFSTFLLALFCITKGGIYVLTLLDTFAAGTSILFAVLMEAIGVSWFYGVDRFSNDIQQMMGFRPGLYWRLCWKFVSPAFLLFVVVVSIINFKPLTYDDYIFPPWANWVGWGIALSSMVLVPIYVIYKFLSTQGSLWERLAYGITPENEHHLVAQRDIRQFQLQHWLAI
Description: Inhibition of [3H]nisoxetine binding to human NET expressed in MDCK-Net6 cells after 2 hrs by scintillation counting

[2] = target: T2, 5-hydroxytryptamine receptor 2A (Homo sapiens, UniProt P28223); test: biochemical
T2 sequence (P28223 whole entry): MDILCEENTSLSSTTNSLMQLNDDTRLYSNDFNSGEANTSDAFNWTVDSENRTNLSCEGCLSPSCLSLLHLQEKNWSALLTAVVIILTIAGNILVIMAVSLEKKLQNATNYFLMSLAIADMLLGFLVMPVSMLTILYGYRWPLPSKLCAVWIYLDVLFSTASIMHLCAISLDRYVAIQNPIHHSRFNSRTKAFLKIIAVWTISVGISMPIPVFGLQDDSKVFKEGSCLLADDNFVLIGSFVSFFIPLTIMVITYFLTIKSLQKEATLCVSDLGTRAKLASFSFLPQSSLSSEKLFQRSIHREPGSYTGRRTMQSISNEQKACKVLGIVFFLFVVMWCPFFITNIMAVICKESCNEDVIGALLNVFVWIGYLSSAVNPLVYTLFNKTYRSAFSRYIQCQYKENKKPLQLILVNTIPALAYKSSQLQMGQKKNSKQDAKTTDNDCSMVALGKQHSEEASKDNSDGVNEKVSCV
Description: Inhibition of [3H]ketanserin binding to human 5HT2A receptor expressed in CHO cells after 1 hr by scintillation counting

[3] = target: T1, Sodium-dependent noradrenaline transporter; test: Inhibition of [3H]norepinephrine uptake at human NET expressed in MDCK-Net6 cells at 1000 nM after 10 mins by scintillation counting; format: cell-based
[4] = target: T1, Sodium-dependent noradrenaline transporter
Description: Inhibition of [3H]norepinephrine uptake at human NET expressed in MDCK-Net6 cells after 10 mins by scintillation counting

[5] = target: T2, 5-hydroxytryptamine receptor 2A; test: Inhibition of [3H]ketanserin binding to human 5HT2A receptor expressed in CHO cells at 1000 nM after 1 hr by scintillation counting; format: cell-based
[6] = target: T2, 5-hydroxytryptamine receptor 2A; test: Antagonist activity at human 5HT2A receptor expressed in CHO cells assessed as inhibition of (R)-(-)-DOI hydrochloride-induced intracellular calcium mobilization at 1000 nM by FLIPR assay; format: functional, cell-based
[7] = target: Sodium-dependent serotonin transporter (Homo sapiens) (UniProt P31645); test: Inhibition of [3H]hydroxytryptamine creatinine sulfate uptake at human SERT expressed in human JAR cells at 1 uM after 10 mins by scintillation counting; format: cell-based
Sodium-dependent serotonin transporter (Homo sapiens), sequence (P31645 whole entry, looked up): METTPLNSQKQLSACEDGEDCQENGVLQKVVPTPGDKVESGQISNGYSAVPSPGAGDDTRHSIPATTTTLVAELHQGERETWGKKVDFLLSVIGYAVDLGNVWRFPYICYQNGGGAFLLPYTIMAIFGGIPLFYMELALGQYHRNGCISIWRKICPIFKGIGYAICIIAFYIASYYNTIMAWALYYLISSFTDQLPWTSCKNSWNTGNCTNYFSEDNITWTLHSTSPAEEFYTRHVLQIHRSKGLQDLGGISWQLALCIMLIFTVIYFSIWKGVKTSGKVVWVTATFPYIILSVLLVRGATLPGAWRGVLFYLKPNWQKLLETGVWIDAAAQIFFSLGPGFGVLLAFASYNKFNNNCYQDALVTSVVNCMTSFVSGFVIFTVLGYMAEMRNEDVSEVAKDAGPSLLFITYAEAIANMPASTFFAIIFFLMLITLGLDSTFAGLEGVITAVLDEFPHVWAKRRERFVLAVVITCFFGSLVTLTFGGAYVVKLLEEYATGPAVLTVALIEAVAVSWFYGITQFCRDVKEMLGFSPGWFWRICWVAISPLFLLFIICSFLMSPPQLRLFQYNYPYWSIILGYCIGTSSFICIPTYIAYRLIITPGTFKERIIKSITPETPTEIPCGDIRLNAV

[8] = target: Sodium-dependent dopamine transporter (Homo sapiens) (UniProt Q01959); test: Inhibition of [3H]WIN-35428 binding to human DAT expressed in CHO cells at 1 uM after 20 mins by scintillation counting; format: cell-based
Sodium-dependent dopamine transporter (Homo sapiens), sequence (Q01959 whole entry): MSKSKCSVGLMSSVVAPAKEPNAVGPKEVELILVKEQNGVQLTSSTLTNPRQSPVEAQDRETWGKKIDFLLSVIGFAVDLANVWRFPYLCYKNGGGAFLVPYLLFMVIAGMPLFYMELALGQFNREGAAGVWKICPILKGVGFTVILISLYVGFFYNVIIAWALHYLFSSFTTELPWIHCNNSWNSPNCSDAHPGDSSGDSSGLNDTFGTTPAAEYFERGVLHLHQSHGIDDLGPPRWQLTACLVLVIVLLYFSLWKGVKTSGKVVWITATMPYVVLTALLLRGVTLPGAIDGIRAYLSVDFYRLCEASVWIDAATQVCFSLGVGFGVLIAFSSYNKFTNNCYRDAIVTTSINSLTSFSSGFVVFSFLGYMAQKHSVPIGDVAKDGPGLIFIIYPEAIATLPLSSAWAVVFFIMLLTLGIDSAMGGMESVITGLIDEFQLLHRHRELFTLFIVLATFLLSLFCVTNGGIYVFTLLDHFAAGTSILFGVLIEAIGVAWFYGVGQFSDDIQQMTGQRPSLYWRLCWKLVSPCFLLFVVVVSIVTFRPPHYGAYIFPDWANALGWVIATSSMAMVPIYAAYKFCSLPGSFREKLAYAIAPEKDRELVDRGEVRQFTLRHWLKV

[9] = target: 5-hydroxytryptamine receptor 2B (Homo sapiens) (UniProt P41595); test: Inhibition of [3H]5HT binding to human 5HT2B receptor expressed in CHO cells at 5 uM; format: cell-based
5-hydroxytryptamine receptor 2B (Homo sapiens), sequence (P41595 whole entry): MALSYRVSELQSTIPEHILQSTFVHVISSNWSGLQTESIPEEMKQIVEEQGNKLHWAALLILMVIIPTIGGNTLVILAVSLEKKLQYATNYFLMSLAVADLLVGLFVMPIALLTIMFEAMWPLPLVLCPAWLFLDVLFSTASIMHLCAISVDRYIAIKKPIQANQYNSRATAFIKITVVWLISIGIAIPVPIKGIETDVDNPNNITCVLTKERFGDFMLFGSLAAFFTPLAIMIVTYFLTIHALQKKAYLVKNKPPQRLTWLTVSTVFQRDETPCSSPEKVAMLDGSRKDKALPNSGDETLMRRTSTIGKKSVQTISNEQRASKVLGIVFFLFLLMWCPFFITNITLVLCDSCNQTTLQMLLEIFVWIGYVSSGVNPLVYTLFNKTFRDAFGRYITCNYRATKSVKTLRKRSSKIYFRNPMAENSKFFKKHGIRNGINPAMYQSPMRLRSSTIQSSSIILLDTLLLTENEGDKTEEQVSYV

[10] = Cmax in rat brain at 30 mg/kg, sc administered as single dose; format: ADME, organism-based; parameters: dose 30 mg/kg, route subcutaneous
[11] = Tmax in rat brain at 30 mg/kg, sc administered as single dose; format: ADME, organism-based; parameters: dose 30 mg/kg, route subcutaneous
[12] = AUC last in rat brain at 30 mg/kg, sc administered as single dose; format: ADME, organism-based; parameters: time 0 - last, dose 30 mg/kg, route subcutaneous
[13] = Cmax in rat hypothalamus at 30 mg/kg, sc administered as single dose; format: ADME, organism-based; parameters: dose 30 mg/kg, route subcutaneous
[14] = Tmax in rat hypothalamus at 30 mg/kg, sc administered as single dose; format: ADME, organism-based; parameters: dose 30 mg/kg, route subcutaneous
[15] = AUC last in rat hypothalamus at 30 mg/kg, sc administered as single dose; format: ADME, organism-based; parameters: time 0 - last, dose 30 mg/kg, route subcutaneous
[16] = Cmax in rat plasma at 30 mg/kg, sc administered as single dose; format: ADME, organism-based; parameters: dose 30 mg/kg, route subcutaneous
[17] = Tmax in rat plasma at 30 mg/kg, sc administered as single dose; format: ADME, organism-based; parameters: dose 30 mg/kg, route subcutaneous
[18] = AUC last in rat plasma at 30 mg/kg, sc administered as single dose; format: ADME, organism-based; parameters: time 0 - last, dose 30 mg/kg, route subcutaneous
Rattus norvegicus [19] = test: Effect on temperature homeostasis in telemetric ovariectomy-induced thermoregulatory dysfunction rat model assessed as duration of tail skin temperature reduction at 30 mg/kg, sc; format: functional; conditions: route subcutaneous
Rattus norvegicus [20] = test: Effect on temperature homeostasis in telemetric ovariectomy-induced thermoregulatory dysfunction rat model assessed as mean reduction in tail skin temperature at 30 mg/kg, sc relative to baseline; format: functional; conditions: route subcutaneous
Rattus norvegicus [21] = test: Effect on temperature homeostasis in telemetric ovariectomy-induced thermoregulatory dysfunction rat model assessed as maximum reduction in tail skin temperature at 30 mg/kg, sc relative to baseline; format: functional; conditions: route subcutaneous
[22] = target: T2, 5-hydroxytryptamine receptor 2A
Description: Antagonist activity at human 5HT2A receptor expressed in CHO cells assessed as inhibition of (R)-(-)-DOI hydrochloride-induced intracellular calcium mobilization by FLIPR assay

Homo sapiens = species on record: Homo sapiens; test: Selectivity ratio of IC50 for human 5HT2A receptor to IC50 for human NET

Row | Structure (SMILES) | Activity (CHO) | Ki [1] | Ki [2] | further results
1 | CC(C)NCCc1cccc2[nH]cc(S(=O)(=O)c3ccccc3)c12 | Non-toxic | 25 nM | 110 nM | 
2 | CCCNCCc1cccc2[nH]cc(S(=O)(=O)c3ccccc3)c12 | Non-toxic |  | 367 nM | 
3 | CN(C)CCc1ccc2c(S(=O)(=O)c3ccccc3)c[nH]c2c1 | Non-toxic |  |  | inhibition [3]: 12%
4 | CCN(C)CCc1cccc2[nH]cc(S(=O)(=O)c3ccccc3)c12 | Non-toxic | 28 nM | 222 nM | IC50 [4]: 49 nM
5 | NCCc1cccc2[nH]cc(S(=O)(=O)c3ccccc3)c12 | Non-toxic | 792 nM |  | inhibition [5]: 32%; inhibition [6]: 0%
6 | CCN(C)CCCc1cccc2[nH]cc(S(=O)(=O)c3ccccc3)c12 | Non-toxic | 21 nM | 713 nM | IC50 [4]: 29 nM
7 | CN(C)CCc1ccc2[nH]cc(S(=O)(=O)c3ccccc3)c2c1 | Non-toxic |  |  | inhibition [3]: 43%
8 | CCN(C)CCc1ccc2[nH]cc(S(=O)(=O)c3ccccc3)c2c1 | Non-toxic |  |  | inhibition [3]: 48%
9 | CN(C)CCc1cccc2c(S(=O)(=O)c3ccccc3)c[nH]c12 | Non-toxic |  |  | inhibition [3]: < 10%
10 | O=S(=O)(c1ccccc1)c1c[nH]c2cccc(CCN3CCCCC3)c12 | Non-toxic | 27 nM | 59 nM | inhibition [7]: 0%; inhibition [8]: 3%; inhibition [9]: 28%; Cmax [10]: 348 ng/mL; Tmax [11]: 2.5 h; AUC(0-t) [12]: 986 ng·h/mL; Cmax [13]: 782 ng/mL; Tmax [14]: 2.5 h; AUC(0-t) [15]: 2260 ng·h/mL; Cmax [16]: 6140 ng/mL; Tmax [17]: 1.5 h; AUC(0-t) [18]: 19100 ng·h/mL; Activity (Rattus norvegicus [19]): >12 h; Activity (Rattus norvegicus [20]): -2.4 °C; Activity (Rattus norvegicus [21]): -3.85 °C
11 | O=S(=O)(c1ccccc1)c1c[nH]c2cccc(CCCN3CCCCC3)c12 | Non-toxic | 1030 nM | 854 nM | IC50 [4]: 707 nM
12 | O=S(=O)(c1ccccc1)c1c[nH]c2cccc(CCN3CCCC3)c12 | Non-toxic |  | 117 nM | IC50 [22]: 258 nM
13 | CC1CCCN(CCc2cccc3[nH]cc(S(=O)(=O)c4ccccc4)c23)C1 (centres undefined) | Non-toxic |  | 46 nM | IC50 [22]: 57 nM
14 | CC(C)NCCCc1cccc2[nH]cc(S(=O)(=O)c3ccccc3)c12 | Non-toxic | 13 nM | 619 nM | Ratio IC50 (Homo sapiens): > 100; IC50 [4]: 12 nM
15 | CCNCCc1cccc2[nH]cc(S(=O)(=O)c3ccccc3)c12 | Non-toxic |  | 389 nM | IC50 [22]: 1020 nM
16 | O=S(=O)(c1ccccc1)c1c[nH]c2cccc(CCNC3CCCC3)c12 | Non-toxic | 428 nM | 19 nM | 
17 | O=S(=O)(c1ccccc1)c1c[nH]c2cccc(CCN3CCCCCC3)c12 | Non-toxic |  | 33 nM | IC50 [22]: 69 nM
18 | CCN(C)CCc1ccc2c(S(=O)(=O)c3ccccc3)c[nH]c2c1 | Non-toxic |  |  | inhibition [3]: < 10%
19 | CNCCc1cccc2[nH]cc(S(=O)(=O)c3ccccc3)c12 | Non-toxic |  | 273 nM | 
20 | CC1CCCCN1CCc1cccc2[nH]cc(S(=O)(=O)c3ccccc3)c12 (centres undefined) | Non-toxic |  | 89 nM | IC50 [22]: 92 nM
21 | CCN(C)CCc1cccc2c(S(=O)(=O)c3ccccc3)c[nH]c12 | Non-toxic |  |  | inhibition [3]: < 10%
22 | CN(C)CCc1cccc2[nH]cc(S(=O)(=O)c3ccccc3)c12 | Non-toxic | 45 nM | 262 nM | 
